Data published in paper PMC12433258, “Binding Differences of the Peptide‐Substrate–Binding Domain of Collagen Prolyl 4‐Hydroxylases I and II for Proline‐ and Hydroxyproline‐Rich Peptides” (Proteins, 2025).
Where two headings read alike, the source gives them in different places. No end group written: not given here.

How the values were obtained:
[1] = target: T1, PSB‐II^142–236 construct (peptide‐substrate–binding domain of C‐P4H‐II α‐subunit) (Homo sapiens, UniProt O15460); assay: ITC binding of proline‐rich peptides to the PSB‐II construct; details: 25°C, 50 μM protein, 3 mM peptide, 20 mM Tris, 50 mM NaCl, 50 mM glycine, pH 8.0, one‐set‐of‐sites, fixed n = 1, average ± SD of three measurements
T1 construct: Met-His6 (N); made in house
T1 sequence (O15460 163-257): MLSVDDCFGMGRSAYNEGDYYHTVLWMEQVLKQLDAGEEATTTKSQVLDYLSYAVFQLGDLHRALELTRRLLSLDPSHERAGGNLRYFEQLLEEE
Text: Additional experiments were done with a longer PSB‐I construct, PSB‐I^144–244 (residues Phe144‐Ser244 (Figure 1A), extended by a C‐terminal Leu‐Glu‐(His)6–tag) and with the PSB‐II^142–236 construct (residues Met142‐Glu236 (Figure 1A), preceded at the N‐terminus by a Met‐His6–tag). The expression and purification protocols for the PSB‐I^144–244 construct and the PSB‐II^142–236 construct have been described earlier.
(§1) The peptides used in these studies were purchased from TAG Copenhagen A/S (Frederiksberg, Denmark). These peptides (9 residues) start with a free amino group and end with a free carboxylate group. The correct mass and the purity of the peptides (> 95% pure) were analyzed by the company using HPLC and mass spectrometry.
The protein samples of the PSB‐I^143–238 and PSB‐II constructs were prepared at a concentration of 50 μM in SEC buffer, being 20 mM Bis‐Tris, 100 mM glycine, pH 6.8 for PSB‐I^143–238 and 20 mM Tris, 50 mM NaCl, 50 mM glycine, pH 8.0 for PSB‐II (as described earlier). […] The control data that measured the residual heat effect from the peptide dilution were subtracted from the data of the peptide titration with PSB in the sample cell. The integrated data were analyzed using the one‐set‐of‐sites fitting model with a fixed stoichiometry (n = 1). […]

[2] = target: T2, PSB‐I^143–238 construct (peptide‐substrate–binding domain of C‐P4H‐I α‐subunit) (Homo sapiens, UniProt P13674); assay: ITC binding of proline‐rich peptides to the PSB‐I^143–238 construct; details: 25°C, 20 mM Bis‐Tris, 100 mM glycine; for ΔG / ΔH / −TΔS: pH 6.8, fixed n = 1, average ± SD of three measurements
T2 construct: made in house; host or cells: E. coli Rosetta(DE3)pLysS, pET22b(+)
T2 sequence (P13674 160-255): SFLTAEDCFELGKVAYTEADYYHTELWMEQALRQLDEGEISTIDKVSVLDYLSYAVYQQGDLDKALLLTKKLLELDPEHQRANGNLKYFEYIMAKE
Text: The PSB‐I^143–238 construct was cloned using standard molecular biology protocols, and a codon‐optimized P4ha1 cDNA for the full‐length C‐P4H‐I α‐subunit (GenScript Biotech Corporation, New Jersey, USA) was used as the template. This construct was amplified using a forward primer containing an NdeI site (underlined) (5′‐[…]‐3′) and a reverse primer containing an XhoI site (underlined) (5′‐[…]‐3′). The amplified product was digested with NdeI and XhoI and ligated into a pET22b(+) plasmid (Novagen, Wisconsin, USA) in‐frame with a C‐terminal His6‐tag, and its sequence (Ser143‐Glu238 (Figure 1A), with C‐terminal Leu‐Glu‐His6–tag) was verified by DNA sequencing in the Biocenter Oulu Sequencing Centre. PSB‐I^143–238 was expressed using Rosetta(DE3)pLysS cells in LB medium containing 100 μg/mL ampicillin and 34 μg/mL chloramphenicol. The cells were grown at 37°C using a shaker at 200 rpm until the OD600 reached 0.6–0.8, after which protein expression was induced using 1‐mM isopropyl β‐D‐1‐thiogalactopyranoside and incubated at 30°C for another 4 h. The cells were harvested and resuspended in 20 mL of 20‐mM Bis‐Tris, 100 mM glycine, pH 6.8 lysis buffer. After cell lysis by sonication, the supernatant was loaded onto a 20 mL Ni‐NTA chelating Sepharose column, pre‐equilibrated with the lysis buffer. Unbound proteins were washed away with 100 mL of the same buffer, and the bound proteins were eluted with a 100 mL linear imidazole gradient (0.0–0.5 M). The eluted fractions were analyzed by SDS‐PAGE to identify PSB‐I containing fractions, which were pooled, concentrated using the Amicon ultracentrifugal filter ([…] molecular weight cut‐off) and loaded on a Superdex75 16/600 preparative grade size‐exclusion chromatography (SEC) column (GE Healthcare, Chicago, USA), pre‐equilibrated with a 20 mM Bis‐Tris, 100 mM glycine, pH 6.8, SEC buffer. Fractions with PSB‐I^143–238 of high purity, based on SDS‐PAGE analysis, were pooled and concentrated to about 22 mg/mL (measured with a NanoDrop 1000, Thermo Scientific, Waltham, USA) and stored in the SEC buffer in 100 μL aliquots at −70°C. All characterizations, crystallization, and crystal testing experiments described below were performed in the Biocenter Oulu core facilities.
as §1
The protein samples of the PSB‐I^143–238 and PSB‐II constructs were prepared at a concentration of 50 μM in SEC buffer, being 20 mM Bis‐Tris, 100 mM glycine, pH 6.8 for PSB‐I^143–238 and 20 mM Tris, 50 mM NaCl, 50 mM glycine, pH 8.0 for PSB‐II (as described earlier). The peptides were dissolved in SEC buffer at a concentration of 3 mM by diluting a 100 mM stock solution in water with SEC buffer. The ITC measurements were carried out at 25°C, using the MicroCal iTC‐200 (Malvern Panalytical Ltd., Malvern, UK). The peptide solution was titrated into a sample cell of 200 μL volume from a syringe that was rotating at 750 rpm. First, 0.4 μL of the peptide solution was injected with a duration of 0.8 s; then, 12 consecutive injections were done, each with a volume of 3 μL, a duration of 6 s, and 180 s spacing time between each injection. For each peptide, at first only buffer in the sample cell (without protein) was titrated, and data were collected as control. Then the data for the PSB sample titrated with the peptide‐containing buffer were collected. The titration data were processed with Origin 7 (OriginLab, Massachusetts, USA) specifically designed for ITC data analysis. The control data that measured the residual heat effect from the peptide dilution were subtracted from the data of the peptide titration with PSB in the sample cell. […]

[3] = test system: PSB‐I construct; details: previous C‐P4H peptide binding studies; cited from earlier work
Text: (§2) Prolines that occur in the PxGP motif cannot be hydroxylated by the C‐P4H catalytic domain, as they are in the X‐position of the XYG‐repeat and the x‐residue at the Y‐position cannot be a proline. […] Low affinity of the (Gly‐Pro‐4Hyp)5 peptide for the PSB co ...

[4] = test system: PSB‐II construct; details: previous C‐P4H peptide binding studies; cited from earlier work
Text: as §2

[5] = test system: C‐P4H‐I; details: cited from earlier work
Text: as §2

[6] = test system: C‐P4H‐II; details: cited from earlier work
Text: as §2

[7] = target: DD‐I construct (double domain construct of the α‐subunit of C‐P4H‐I); details: calorimetric binding, reported previously; read-out: Affinity (K D) for the PSB‐I domain of the DD‐I construct; cited from earlier work
Text: The affinity properties of the PSB‐I and PSB‐II constructs, as obtained from ITC peptide binding experiments, are shown in Table 2 and Figure S3.

[8] = target: T1, PSB‐II^142–236 construct (peptide‐substrate–binding domain of C‐P4H‐II α‐subunit); details: ITC, data described previously, average ± SD of three measurements; cited from earlier work

Compound	ΔG [2] [kcal/mol]	ΔH [2] [kcal/mol]	−TΔS [2] [kcal/mol]	other results
C[C@H](NC(=O)[C@@H]1CCCN1C(=O)CNC(=O)[C@@H]1C[C@@H](O)CN1C(=O)[C@@H]1CCCN1)C(=O)NCC(=O)N1CCC[C@H]1C(=O)N1C[C@H](O)C[C@H]1C(=O)NCC(=O)O [POG‐PAG‐POG]	-5.60 ± 0.08	-12.7 ± 0.2	7.07 ± 0.25	Kd [1]: 26.2 ± 1.9 µM; Kd ([2]; 50 μM protein in cell, 3 mM peptide in syringe, pH 6.8, one‐set‐of‐sites model, fixed n = 1, average ± SD of three measurements): 79.6 ± 9.6 µM
(Gly‐Pro‐4Hyp)5 [model peptide with a hydroxyproline at the Y‐position of each tripeptide repeat]	–	–	–	Affinity for the PSB‐I construct relative to (PPG)5 [3]: much lower affinity than the (PPG)5 substrate peptide; Affinity for the PSB‐II construct relative to (PPG)5 [4]: much lower affinity than the (PPG)5 substrate peptide; Substrate of C‐P4H‐I [5]: not a substrate; Substrate of C‐P4H‐II [6]: not a substrate
C[C@H](NC(=O)[C@@H]1CCCN1C(=O)CNC(=O)[C@@H]1CCCN1C(=O)[C@@H]1CCCN1)C(=O)NCC(=O)N1CCC[C@H]1C(=O)N1CCC[C@H]1C(=O)NCC(=O)O [PPG‐PAG‐PPG]	-5.51 ± 0.02	-12.4 ± 0.5	6.86 ± 0.49	–
PPGPRGPPG [PPG‐PRG‐PPG]	-6.06 ± 0.04	-14.9 ± 0.4	8.87 ± 0.37	–
PPPPPPPPP [P9, (Pro)9 peptide]	-5.59 ± 0.10	-9.5 ± 0.8	3.95 ± 0.82	Kd [7]: 9.8 µM; Kd [8]: > 1500 µM
PPGPEGPPG [PPG‐PEG‐PPG]	-5.57 ± 0.02	-13.2 ± 1.2	7.67 ± 1.17	–
PPGPPGPPG [(PPG)3, PPG‐PPG‐PPG peptide]	-4.83 ± 0.06	-13.6 ± 1.7	8.77 ± 1.66	Kd [7]: 144 µM; K D [8]: Not detectable
